The supplement of paper PMC10307832

Legend:
Assay in all cases: relative viability (nuclei count vs DMSO), 5 days (fraction); higher = more cells survive
[1] = compound: CN[C@@H]1C[C@H]2O[C@@](C)([C@@H]1OC)n1c3ccccc3c3c4c(c5c6ccccc6n2c5c31)C(=O)NC4 [Staurosporine] + Nc1ncn([C@H]2C[C@H](O)[C@@H](CO)O2)c(=O)n1 [Decitabine] (partner 2 µM)
Outline: (§1)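 Relative viability divides the nuclei count in treated wells by that in vehicle wells. Lung cancer cell lines were seeded in 1536-well plates, dosed by pin tool the next day, and fixed and stained after 5 days in one step with final 0.05% Triton X-100, 1% formaldehyde and 1 ug/ml Hoechst. Dosing was a single drug or a fixed anchor-drug dose plus five library-drug doses (not always all listed) in √10 steps, and values are medians of duplicate plates imaged at 4×.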

Sulindac + Pemetrexed = compound: CC1=C(CC(=O)O)c2cc(F)ccc2/C1=C\c1ccc([S+](C)[O-])cc1 [Sulindac] + Nc1nc2[nH]cc(CCc3ccc(C(=O)N[C@@H](CCC(=O)O)C(=O)O)cc3)c2c(=O)[nH]1 [Pemetrexed] (partner 0.2 µM)
Outline: as §1

[2] = compound: O=c1[nH]cc(F)c(=O)[nH]1 [5-Fluorouracil] + CS(=O)(=O)CCNCc1ccc(-c2ccc3ncnc(Nc4ccc(OCc5cccc(F)c5)c(Cl)c4)c3c2)o1 [Lapatinib] (partner 2 µM)
Outline: as §1

[3] = compound: CN[C@@H]1C[C@H]2O[C@@](C)([C@@H]1OC)n1c3ccccc3c3c4c(c5c6ccccc6n2c5c31)C(=O)NC4 [Staurosporine] + CCNC(=O)c1noc(-c2cc(C(C)C)c(O)cc2O)c1-c1ccc(CN2CCOCC2)cc1 [Luminespib] (partner 0.01 µM)
Outline: as §1

## UMC-11
[1]; first compound 0.005 µM
  relative viability: 0.76
[1]; first compound 0.05 µM
  relative viability: 0.192
[1]; first compound 0.1581 µM
  relative viability: 0.153
[1]; first compound 0.5 µM
  relative viability: 0.371
Sulindac + Pemetrexed; first compound 0.08 µM
  relative viability: 0.853
Sulindac + Pemetrexed; first compound 0.253 µM
  relative viability: 0.808
Sulindac + Pemetrexed; first compound 0.8 µM
  relative viability: 0.582
Sulindac + Pemetrexed; first compound 2.53 µM
  relative viability: 0.747
Sulindac + Pemetrexed; first compound 8 µM
  relative viability: 0.868
[2]; first compound 0.02 µM
  relative viability: 0.905
[2]; first compound 0.2 µM
  relative viability: 0.746
[2]; first compound 0.6325 µM
  relative viability: 0.434
[2]; first compound 2 µM
  relative viability: 0.443
[3]; first compound 0.005 µM
  relative viability: 0.894
[3]; first compound 0.01581 µM
  relative viability: 0.487
[3]; first compound 0.05 µM
  relative viability: 0.223
[3]; first compound 0.1581 µM
  relative viability: 0.135
[3]; first compound 0.5 µM
  relative viability: 0.0992
